Tests used:
MCF-casp3 cells = assay: TNF-induced cell death of MCF-casp3 cells
Procedure: (§1) The ability of compound f to inhibit cell death was examined in MCF-neo and MCF-casp3 cells. […] To analyse the mechanism of the action of compound f in alive cells, MCF-casp3 cells were treated with TNF (5 ng/ml) in the presence of 50 μM compound f and the activity of caspase-3-like proteases was measured by a DEVDase enzyme assay.

recombinant caspase-9 = biological target: T1, recombinant caspase-9 (Homo sapiens, UniProt P55211); assay: Recombinant caspase-9 activity, cleavage of LEHD-AFC; format: biochemical; settings: 25 to 100 μM; LEHD-AFC substrate
T1 sequence (P55211 1-315 limits assumed): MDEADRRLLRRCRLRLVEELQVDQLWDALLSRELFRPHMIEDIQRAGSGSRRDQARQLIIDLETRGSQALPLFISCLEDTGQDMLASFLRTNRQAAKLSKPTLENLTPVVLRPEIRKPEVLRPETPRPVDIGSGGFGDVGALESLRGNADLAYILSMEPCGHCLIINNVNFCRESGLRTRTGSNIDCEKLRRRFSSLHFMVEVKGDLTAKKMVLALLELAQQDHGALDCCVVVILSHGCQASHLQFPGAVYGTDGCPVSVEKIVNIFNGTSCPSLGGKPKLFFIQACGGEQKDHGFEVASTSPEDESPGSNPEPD
T1 sequence (P55211 331-416 limits assumed): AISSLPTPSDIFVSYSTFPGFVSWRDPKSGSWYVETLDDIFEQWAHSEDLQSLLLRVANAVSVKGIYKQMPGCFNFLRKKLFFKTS
Procedure: The inhibition of the DEVDase activity in the in vitro caspase activation system could be due to a direct inhibition of caspase-9, -3, or -7 activities, or to the inhibition of the apoptosome formation. To test if compounds a, f, and g were specific caspase inhibitors, recombinant caspase-3 and caspase-9 were incubated with the three compounds and the enzymatic activities of caspases were monitored by analysing the cleavage of the caspase-3 substrate DEVD-AFC or the caspase-9 substrate LEHD-AFC, respectively.

[1] = tested on: DEVDase (caspase-3-like protease); assay: Inhibition of DEVDase in cytochrome c/dATP-activated Hela cytosolic extract (method 1); format: biochemical
Procedure: Hela cells are grown in large petri dishes until subconfluency. Cells are then harvested and washed in PBS. The cell pellet is resuspended in equal volumes of ice-cold isotonic lysisbuffer (SCA; 20 mM Hepes-KOH pH 7.5, 10 mM KCl, 1.5 mM MgCl2, 1 mM EDTA, 1 mM EGTA, 250 mM sucrose, 1 mM DTT, 10 μg/ml aprotinin, 1 μg/ml leupeptin, 1 μg/ml pepstatin A, 100 μg/ml peta-block), incubated on ice for 30 min and lysed by approx. 30 strokes of a dounce homogenizer. The lysate is then centrifuged at 750 g for 10 min, and the supernatant thereof at 10,000 g for 10 min and at 20,000 g for 30 min. The clarified supernatant is removed carefully and stored in aliquots at −80° C. Activation of endogene caspases is induced by addition of 1 mM dATP and 1 μM horse heart cytochrome c to cytosolic extract (protein concentration; 5-10 mg/ml) in the presence of DEVD-AFC and the compound (final concentration 100 μM). Activated DEVD'ases (AFC release) is measured by fluorometry in 96-well plates at 37° C. After end measurements 2× LSB-Mechaptoethanol are added to the samples for assessment of caspase processing by immunoblot analysis. Percent inhibition is calculated as follows: [formula]

[2] = tested on: caspase-3-like proteases in MCF-casp3 cells; assay: TNF-induced DEVDase activity in MCF-casp3 cells; format: cell-based; settings: TNF 5 ng/ml, 50 μM
Procedure: as §1

MCF-neo cells = assay: TNF-induced cell death of MCF-neo cells; format: cell-based
Procedure: as §1

Compound: O=C(Nc1cccc(C(F)(F)F)c1)Nc1cc(Cl)ccc1C(=O)O [Compound f, [N-(2-Carboxy-5-chlorophenyl)-N′-(3-trifluoromethylphenyl)]urea]
- cell death induced by TNF (MCF-casp3 cells; 1 ng/ml TNF, 50 μM): completely blocked
- protection against TNF-induced cell death (MCF-casp3 cells; 5 ng/ml TNF, 50 μM): protection was still significant
- inhibition of TNF-induced cell death (MCF-casp3 cells; 10 ng/ml TNF): no inhibition
- inhibition of recombinant caspase-9 activity (recombinant caspase-9): failed to inhibit
- inhibition of the DEVDase activity (dose dependence) ([1]; cell extracts stimulated with Cc/dATP): dose-dependent inhibition
- % Inhibition ([1]; compound final concentration 100 μM, 1 mM dATP and 1 μM cytochrome c, DEVD-AFC): 94%
- TNF-induced DEVDase activity [2]: significantly reduced
- cell death induced by TNF (MCF-neo cells; 1 ng/ml TNF, 50 μM): completely blocked
- protection against TNF-induced cell death (MCF-neo cells; 5 ng/ml TNF, 50 μM): protection was still significant
- inhibition of TNF-induced cell death (MCF-neo cells; 10 ng/ml TNF): no inhibition
